Source: patent publication US20230286960A1, “ALLOSTERIC CHROMENONE INHIBITORS OF PHOSPHOINOSITIDE 3-KINASE (PI3K) FOR THE TREATMENT OF DISEASE” (Petra Pharma Corporation, priority 2020, published 2023)

Tests used:
Mouse PK Assays = format: in vivo; parameters: PK-Mouse: PO AUC-last/dose: unit not given here; conditions: fed
[1] = molecular target: human full length PIK3CA wild-type (p110α/p85α) (Homo sapiens (Human), UniProt P42336); assay: PI3K-alpha kinase (PIK3CA) activity, wild-type, Transcreener ADP2 FI assay; conditions: PI3K-α (PIK3CA) biochemical
Chain of human full length PIK3CA wild-type (p110α/p85α) (P42336 whole entry): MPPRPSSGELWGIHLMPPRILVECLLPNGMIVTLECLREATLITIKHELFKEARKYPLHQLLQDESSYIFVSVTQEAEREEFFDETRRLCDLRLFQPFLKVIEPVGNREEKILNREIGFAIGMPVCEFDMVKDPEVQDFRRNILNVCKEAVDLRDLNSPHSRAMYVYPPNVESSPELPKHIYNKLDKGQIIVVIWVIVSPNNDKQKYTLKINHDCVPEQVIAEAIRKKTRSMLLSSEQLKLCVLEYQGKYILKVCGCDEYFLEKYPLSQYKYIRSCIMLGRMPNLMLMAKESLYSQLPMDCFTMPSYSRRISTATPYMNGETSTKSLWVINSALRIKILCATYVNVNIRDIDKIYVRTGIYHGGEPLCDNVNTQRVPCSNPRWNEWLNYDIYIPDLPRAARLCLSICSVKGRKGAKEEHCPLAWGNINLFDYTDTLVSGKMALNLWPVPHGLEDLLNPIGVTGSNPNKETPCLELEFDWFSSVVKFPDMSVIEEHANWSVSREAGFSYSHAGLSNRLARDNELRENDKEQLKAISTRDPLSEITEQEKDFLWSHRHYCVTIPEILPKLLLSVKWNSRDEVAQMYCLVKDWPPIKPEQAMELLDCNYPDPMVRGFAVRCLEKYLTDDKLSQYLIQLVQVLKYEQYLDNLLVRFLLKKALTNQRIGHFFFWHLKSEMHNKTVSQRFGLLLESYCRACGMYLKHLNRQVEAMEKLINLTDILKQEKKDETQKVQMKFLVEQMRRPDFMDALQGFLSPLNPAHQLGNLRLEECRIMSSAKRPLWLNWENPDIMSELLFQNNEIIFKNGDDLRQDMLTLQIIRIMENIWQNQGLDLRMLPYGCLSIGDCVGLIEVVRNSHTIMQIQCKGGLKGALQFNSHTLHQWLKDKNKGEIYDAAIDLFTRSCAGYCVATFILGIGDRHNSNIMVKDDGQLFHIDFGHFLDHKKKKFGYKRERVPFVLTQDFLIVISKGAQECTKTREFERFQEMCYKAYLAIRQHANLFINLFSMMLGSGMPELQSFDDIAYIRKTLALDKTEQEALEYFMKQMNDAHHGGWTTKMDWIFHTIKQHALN
Chain of human full length PIK3CA wild-type (p110α/p85α) (P27986 whole entry partner): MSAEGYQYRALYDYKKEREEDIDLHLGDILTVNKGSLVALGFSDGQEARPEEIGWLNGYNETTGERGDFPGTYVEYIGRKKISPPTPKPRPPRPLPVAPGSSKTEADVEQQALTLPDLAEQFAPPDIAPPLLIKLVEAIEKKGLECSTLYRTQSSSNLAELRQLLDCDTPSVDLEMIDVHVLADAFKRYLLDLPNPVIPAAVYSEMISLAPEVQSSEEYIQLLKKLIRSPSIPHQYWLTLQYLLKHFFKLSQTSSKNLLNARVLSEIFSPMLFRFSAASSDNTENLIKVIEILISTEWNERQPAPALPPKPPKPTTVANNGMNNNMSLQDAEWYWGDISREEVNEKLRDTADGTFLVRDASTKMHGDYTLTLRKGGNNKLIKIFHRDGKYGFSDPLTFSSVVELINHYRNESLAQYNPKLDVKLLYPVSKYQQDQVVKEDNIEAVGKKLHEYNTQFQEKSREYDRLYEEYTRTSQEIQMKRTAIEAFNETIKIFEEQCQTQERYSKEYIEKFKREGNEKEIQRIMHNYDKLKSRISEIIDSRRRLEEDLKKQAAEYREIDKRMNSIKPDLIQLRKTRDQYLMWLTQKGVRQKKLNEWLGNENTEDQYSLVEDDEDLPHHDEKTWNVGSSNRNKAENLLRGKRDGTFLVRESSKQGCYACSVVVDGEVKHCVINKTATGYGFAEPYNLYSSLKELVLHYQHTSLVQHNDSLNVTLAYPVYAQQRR
Description: (§1) PI3K-Alpha Kinase (PIK3CA) Activity, Wild-Type and H1047R Mutant and Determining IC50 Values for Inhibitors
(§2) Recombinant, catalytically active human full length PIK3KA Wild-type and H1047R mutant were purchased as 1:1 complex of N-terminal 6× his tagged p110 ? (catalytic) and untagged p85 ? (regulatory subunit) from EMD Millipore Sigma (cat. no. 14-602M and 14-792M, respectively). The enzyme stocks were diluted to 5× stocks in buffer (20 mM HEPES pH 7.4, 100 mM NaCl, 0.5 mM EGTA, 0.01% triton-x-100) just before use. PIP2diC8 (Avanti Polar Lipids Inc., cat. no. 850185) or phosphoinositol-4,5-bisphosphate with phosphoserine (PIP2:PS) membrane (Thermo Fisher Scientific, cat. no. PV5100) was used as lipid substrates. PIP2diC8 lyophilized powder and PIP2:PS (1:19) membrane stock (1 mM in PIP2) were separately dissolved in milliQ water to a concentration of 250 uM and stored in −20° C. 10 mM stocks of compounds were serially diluted (3×) in neat DMSO and stored in a dessicator at room temperature. 5× compound stocks in 25% DMSO were prepared fresh from neat DMSO stocks.
(§3) Wild-type (WT) and H1047R mutant protein, along with buffer components (except ATP), were incubated with or without compound at 27° C. for 1 h. After incubation, the reaction was initiated by the addition of 5 uL of 125 uM ATP. A typical assay mixture (25 uL) comprised 40 mM HEPES buffer, pH 7.4, 25 mM MgCl2, 0.01% v/v triton-X-100, 5% v/v DMSO, 20 mM NaCl, 1-5 nM wt or H1047R, 25 uM ATP, and 50 uM PIP2diC8 or PIP2 in membrane. The reaction was allowed to proceed until about […] (2.5 uM ADP) after which time, 10 uL of reaction mixture was quenched with 25 uL of transcreener reagent (Transcreener ADP2 FI assay kit, BellBrook labs, Cat. No. 3013). The contents were incubated at rt for 1 h and fluorescence was measured using a plate reader (Paradigm, Molecular Devices). The same assay was also run at pH 6.0 or 6.4 using MOPS buffer (Fisher BioReagents, CAS 1132-61-2). A calibration curve was generated under identical buffer conditions with varying ADP amounts. Using that, the observed fluorescence was converted to uM ADP. A plot between [ADP] and log[I] yielded the dose-response curves that enabled the calculation of IC50s.

[2] = molecular target: human full length PIK3CA H1047R mutant (p110α/p85α) (Homo sapiens (Human), UniProt P42336, H1047R); assay: PI3K-alpha kinase (PIK3CA) activity, H1047R mutant, Transcreener ADP2 FI assay; conditions: PI3K-α (PIK3CA) biochemical
Chain of human full length PIK3CA H1047R mutant (p110α/p85α) (P42336 whole entry H1047R): as the sequence (P42336 whole entry) above, with H1047R counted along it
Chain of human full length PIK3CA H1047R mutant (p110α/p85α) (P27986 whole entry partner): as the sequence (P27986 whole entry partner) above
Description: as §1, §2, §3

[3] = PO 10 mg/kg, 20% DMSO/60% PEG400/20% Water
[4] = PO 50 mg/kg, 20% DMSO/60% PEG400/20% Water
[5] = PO 10 mg/kg, 30% SBE-beta-cyclodextrin
[6] = PO 100 mg/kg, 20% DMSO/60% PEG400/20% H2O

Row | PK-Mouse: F % Calcd (Mouse PK Assays; [3]) | PK-Mouse: PO AUC-last/dose (Mouse PK Assays; [3]) | PK-Mouse: F % Calcd (Mouse PK Assays; [4]) | PK-Mouse: PO AUC-last/dose (Mouse PK Assays; [4]) | PK-Mouse: F % Calcd (Mouse PK Assays; [5]) | PK-Mouse: PO AUC-last/dose (Mouse PK Assays; [5]) | PK-Mouse: F % Calcd (Mouse PK Assays; [6]) | PK-Mouse: PO AUC-last/dose (Mouse PK Assays; [6]) | IC50 [1] | IC50 [2] | SMILES
1 | 86% | 1800 | 33% | 700 |  |  |  |  |  |  | Cc1cc(C(C)Nc2ccccc2C(=O)O)c2oc(N3Cc4ccccc4C3)cc(=O)c2c1 (single isomer, unassigned) [Example 363, 2-[1-(2-Isoindolin-2-yl-6-methyl-4-oxo-chromen-8-yl)ethylamino]benzoic acid]
2 |  |  | 280% | 960 | 110% | 390 | 220% | 760 |  |  | Cc1cc(C(C)Nc2ccccc2C(=O)O)c2oc(N3CCC(C)(C)CC3)cc(=O)c2c1 (single isomer, unassigned) [Example 366, 2-[1-[2-(4,4-Dimethyl-1-piperidyl)-6-methyl-4-oxo-chromen-8-yl]ethylamino]benzoic acid]
3 |  |  |  |  |  |  |  |  | > 10 µM | < 0.5 µM | Cc1cc(C(C)Nc2ccccc2C(=O)O)c2oc(N3CCC(C)CC3)cc(=O)c2c1 (centres unmarked) [Example 370, 2-[1-[6-Methyl-2-(4-methyl-1-piperidyl)-4-oxo-chromen-8-yl]ethylamino]benzoic acid]
4 |  |  |  |  |  |  |  |  | < 0.5 µM | < 0.5 µM | CC(Nc1ccc(Cl)nc1C(=O)O)c1cc(F)cc2c(=O)cc(N3Cc4ccccc4C3)oc12 (centres unmarked) [Example 400, 6-Chloro-3-[1-(6-fluoro-2-isoindolin-2-yl-4-oxo-chromen-8-yl)ethylamino]pyridine-2-carboxylic acid 2,2,2-trifluoroacetic acid]
